Reference: ChEMBL document CHEMBL1122084, “Relative affinity of 17 alpha- and/or 21-esters and 17 alpha, 21-diesters of cortisol for a glucocorticoid receptor from rat thymocytes” (J Med Chem, 1982)

Biological target: T1, Glucocorticoid receptor (Rattus norvegicus) (UniProt P06536)
T1 sequence (whole entry): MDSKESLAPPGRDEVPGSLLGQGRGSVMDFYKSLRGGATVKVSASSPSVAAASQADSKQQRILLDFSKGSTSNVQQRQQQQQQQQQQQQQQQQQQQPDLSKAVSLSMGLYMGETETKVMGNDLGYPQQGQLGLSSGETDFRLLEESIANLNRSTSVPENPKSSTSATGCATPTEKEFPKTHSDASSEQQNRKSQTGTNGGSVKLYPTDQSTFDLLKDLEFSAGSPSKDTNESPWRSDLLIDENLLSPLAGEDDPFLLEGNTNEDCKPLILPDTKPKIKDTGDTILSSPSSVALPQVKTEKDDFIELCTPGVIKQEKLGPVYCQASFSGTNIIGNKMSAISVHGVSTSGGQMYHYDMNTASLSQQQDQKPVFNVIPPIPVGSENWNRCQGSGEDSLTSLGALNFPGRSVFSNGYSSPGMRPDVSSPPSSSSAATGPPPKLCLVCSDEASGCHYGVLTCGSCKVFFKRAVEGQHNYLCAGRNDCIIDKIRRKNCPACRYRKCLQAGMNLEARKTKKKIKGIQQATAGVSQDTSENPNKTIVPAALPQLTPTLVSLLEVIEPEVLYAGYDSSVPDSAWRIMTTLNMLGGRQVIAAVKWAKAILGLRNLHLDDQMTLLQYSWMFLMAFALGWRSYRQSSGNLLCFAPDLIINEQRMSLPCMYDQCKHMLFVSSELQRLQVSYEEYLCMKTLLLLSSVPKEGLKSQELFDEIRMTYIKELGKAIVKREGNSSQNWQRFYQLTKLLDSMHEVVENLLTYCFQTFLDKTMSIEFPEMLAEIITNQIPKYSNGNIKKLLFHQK
Assay: Relative binding affinity for glucocorticoid receptor of rat thymus cytosol by displacement of [3H]dexamethasone compared to cortisol

First: CCCCC(=O)OCC(=O)[C@@]1(OC(C)=O)CCC2C3CCC4=CC(=O)CCC4(C)C3C(O)CC21C (stereo partly drawn)
Second: CCCC(=O)OCC(=O)[C@@]1(OC(C)=O)CCC2C3CCC4=CC(=O)CCC4(C)C3C(O)CC21C (stereo partly drawn)
The Relative binding affinity of the first is higher: 0.272 for the first, 0.152 for the second.

First: CCCCC(=O)OCC(=O)[C@@]1(O)CCC2C3CCC4=CC(=O)CCC4(C)C3C(O)CC21C (stereo partly drawn)
Second: CC(=O)OCC(=O)[C@@]1(O)CC[C@H]2[C@@H]3CCC4=CC(=O)CC[C@]4(C)[C@H]3[C@@H](O)C[C@@]21C
The Relative binding affinity of the first is higher: 0.32 for the first, 0.046 for the second.

Going from `CC(=O)O[C@]1(C(=O)CO)CCC2C3CCC4=CC(=O)CCC4(C)C3C(O)CC21C` (stereo partly drawn) to `CCCC(=O)O[C@]1(C(=O)CO)CC[C@H]2[C@@H]3CCC4=CC(=O)CC[C@]4(C)[C@H]3[C@@H](O)C[C@@]21C`, the Relative binding affinity rises from 1.14 to 12.4.

First: CC(=O)OCC(=O)[C@@]1(OC(C)=O)CCC2C3CCC4=CC(=O)CCC4(C)C3C(O)CC21C (stereo partly drawn)
Second: CCC(=O)OCC(=O)[C@@]1(OC(C)=O)CCC2C3CCC4=CC(=O)CCC4(C)C3C(O)CC21C (stereo partly drawn)
The Relative binding affinity of the first is lower: 0.036 for the first, 0.093 for the second.

First: CCCCC(=O)O[C@]1(C(=O)COC(=O)CCC)CCC2C3CCC4=CC(=O)CCC4(C)C3C(O)CC21C (stereo partly drawn)
Second: CCCCC(=O)O[C@]1(C(=O)COC(=O)CC)CCC2C3CCC4=CC(=O)CCC4(C)C3C(O)CC21C (stereo partly drawn)
The Relative binding affinity of the first is higher: 1.33 for the first, 1.17 for the second.

First: CCCCC(=O)O[C@]1(C(=O)COC(C)=O)CCC2C3CCC4=CC(=O)CCC4(C)C3C(O)CC21C (stereo partly drawn)
Second: CCCCC(=O)O[C@]1(C(=O)CO)CCC2C3CCC4=CC(=O)CCC4(C)C3C(O)CC21C (stereo partly drawn)
The Relative binding affinity of the first is lower: 0.76 for the first, 11.5 for the second.

Biological target: T1, Glucocorticoid receptor (Rattus norvegicus)
Assay: Relative binding affinity for glucocorticoid receptor of rat thymus cytosol by displacement of [3H]dexamethasone

Molecule `C[C@]12CCC(=O)C=C1CC[C@@H]1[C@@H]2[C@@H](O)C[C@@]2(C)[C@H]1CC[C@]2(O)C(=O)CO` has a Relative binding affinity of 1.
